Assay results from patent publication US7863446B2, “Heterocycles” (Orchid Research Laboratories Limited, priority 2006, dated 2011).

What was measured:
DU-145 = assay: Anti-cancer screen (MTT), DU-145; type: cell-based; details: Homo sapiens, DU-145, 48 hours
IL-6 = assay: In vitro measurement of IL-6 in human PBMC (LPS stimulated); type: cell-based
Outline: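 Human PBMC (0.5 million/well) pre-incubated with compound 15 min at 37 °C, then stimulated with E. coli LPS (1 μg/ml) for 18 h at 37 °C, 5% CO2. IL-6 in culture medium quantified by ELISA.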

NCI-H460 = assay: Anti-cancer screen (MTT), NCI-H460; type: cell-based; details: Homo sapiens, NCI-H460, 48 hours
Protocol: Experimental drugs are screened for anti-cancer activity in three cell lines for their GI50, TG1 and LC50 values (using 5 concentrations for each compound). The cell lines are maintained in DMEM containing 10% fetal bovine serum. 96 well microtiter plates are inoculated with cells in […] for 24 hours at 37° C., 5% CO2, 95% air and 100% relative humidity. 5000 HCT116 cells/well, 5000 NCIH460 cells/well, 10000 U251 cells/well and 5000 MDAMB231 cells/well are plated. A separate plate with these cell lines is also inoculated to determine cell viability before the addition of the compounds (T0).
Addition of Experimental Drugs
Following 24-hour incubation, experimental drugs are added to the 96 well plates. Each plate contains one of the above cell lines and the following in triplicate: 5 different concentrations (0.01, 0.1, 1, 10 and 100 μM) of 4 different compounds, appropriate dilutions of a cytotoxic standard and control (untreated) wells. Compounds are dissolved in dimethylsulfoxide (DMSO) to make 20 mM stock solutions, on the day of drug addition and frozen at −20° C. Serial dilutions of these 20 mM stock solutions are made in complete growth medium such that 100 μL of these drug solutions in medium, of final concentrations equaling 0.01, 0.1, 1, 10 and 100 μM can be added to the cells in triplicate. Standard drugs whose anti-cancer activity has been well documented and which are regularly used are doxorubicin and SAHA.
Cells are incubated with compounds for 48 hours followed by the addition of 10 μL 3-(4,5-Dimethyl-2-thiazolyl)-2,5-diphenyl-2H-tetrazolium (MTT) solution per well and a subsequent incubation at 37° C., 5% CO2, 95% air and 100% relative humidity, protected from light. After 4 hours, well contents are aspirated carefully followed by addition of 150 μL DMSO per well. Plates are agitated to ensure solution of the formazan crystals in DMSO and absorbance read at 570 nm.
Calculation of GI50, TGI and LC50
Percent growth is calculated for each compound's concentration relative to the control and zero measurement wells (T0; viability right before compound addition).
If a test well's O.D. value is greater than the T0 measurement for that cell line % Growth=(test−zero)/(control−zero)×100
If a test well's O.D. value is lower than the T0 measurement for that cell line, then % Growth=(test−zero)/zero×100 Plotting % growth versus experimental drug concentration, GI50 is the concentration required to decrease % growth by 50%; TGI is the concentration required to decrease % growth by 100% and LC50 is the concentration required to decrease % growth by 150%.

TNF-α = assay: In vitro measurement of TNF-α in human PBMC (LPS stimulated); type: cell-based
Outline: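 Healthy-volunteer PBMC (0.5 million/well) in RPMI were pre-incubated with compound 15 min at 37 °C. They were then stimulated with E. coli B4 LPS 1 μg/ml for 18 h at 37 °C, 5% CO2. TNF-α in culture medium was measured by ELISA.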

Male wistar rats = assay: Carrageenan induced paw edema test in rat; type: in vivo; details: oral, 3 hours after carrageenan
Protocol: Carrageenan Induced Paw Edema Test in Rat
The carrageenan paw edema test was performed as described by Winter et al (Proc. Soc. Exp. Biol. Med, 111, 544, 1962). Male wistar rats were selected with body weights equivalent within each group. The rats were fasted for 18 hours with free access to water. The rats were dosed orally with the test compound suspended in the vehicle containing 0.25% carboxymethylcellulose and 0.5% Tween 80. The control rats were administered with vehicle alone. After an hour, the rats were injected with 0.1 ml of 1% Carrageenan solution in 0.9% saline into the sub-plantar surface of the right hind paw. Paw volume was measured using digital plethysmograph before and after 3 hours of carrageenan injection. The average of foot swelling in drug treated animals was compared with that of the control animals. Anti-inflammatory activity was expressed as the percentage inhibition of edema compared with control group [Arzneim-Forsch/Drug Res., 43 (I), 1, 44-50, 1993; Representative results of edema inhibition are shown in the Table VI.

CNS(=O)(=O)c1ccc(-c2c(Cl)nc(C(F)(F)F)nc2-c2ccc(S(C)(=O)=O)cc2)cc1 [Example 4, 4-{4-Chloro-6-[4-(methylsulfonyl)phenyl]-2-(trifluoromethyl)pyrimidin-5-yl}-N-methylbenzenesulfonamide] gave a GI50 (DU-145) of 1.93 µM, a melting point of 226 to 230 °C and an inhibition at 1 µM (IL-6; 1 μM, read-out: IL-6 Inhibition (%) Conc. (1 μM)) of 27.2%. It also gave an inhibition at 10 µM (IL-6; 10 μM, read-out: IL-6 Inhibition (%) Conc. (10 μM)) of 100%, a GI50 (NCI-H460) of 1.65 µM and an inhibition at 1 µM (TNF-α; 1 μM, NA = No activity, read-out: TNF-α Inhibition (%) at Conc. (1 μM)) of 30%. For the same compound, the inhibition at 10 µM (TNF-α; 10 μM, read-out: TNF-α Inhibition (%) at Conc. (10 μM)) was 107% and the “Inhibition of edema (%) at 5 mg/kg” value (Male wistar rats) was 17.12%.
